Key:
[1] = Lipophilicity determination by gradient HPLC (log k′g); type: physicochemical; conditions: HPLC gradient 1, RP-18, triethylammonium phosphate buffer pH 6.5 / methanol (ion pair chromatography)
Method: Gradient 1: Stationary phase: Polygosil 60-10, RP-18; 250×4 mm (Macherey & Nagel, DOren, Germany). Mobile phase A: 10 ml 1 M triethylammonium phosphate buffer (TEAP), pH 6.5+990 ml methanol. Mobile phase B: 10 ml 1 M TEAP, pH 6.5+990 ml H2O. Time program: 0 min: 100% B; 60 min: 100% A; 65 min: 100% A; 70 min: 100% B; 90 min: 100% B. Flow rate: 1.0 ml/min.
The octanol/water coefficient Log P is the commonly accepted indicator for the expected property of a given chemical entity to pass cellular membranes by passive diffusion. However, its practical determination for polar compounds such as multiply charged nucleotides is difficult in reality. Often, the information about membrane permeability must be received by fragmental analysis or other calculations.
Given this fact, an established HPLC method is used here, which is based on the measurement of retention on a reversed phase column^7. In contrast to Log P, this method yields the indicator log k′g, which allows for a ranking of different nucleotides of the same charge according to their lipophilicity.
Since CDNs are twofold negatively charged molecules which are only very insufficiently retarded on a reversed phase HPLC column, the determinations were performed in presence of the lipophilic triethylammonium cation (ion pair chromatography).
According to the established method^7 HPLC gradient 1 was used for the determination of lipophilicity.

STING signalling pathway = assay: Interferon-β promoter SEAP reporter assay in THP1-Blue cells; type: cell-based, human; conditions: 0, 10, 20, 40 μg/ml, 24 hours
Method: Legend for Synthesis 4: THP1-Blue™ cells ((THP1-ISG); InvivoGen, catalogue number: thp-isg; concentration: 5×10^5/ml, 180 μl/well (96-well-plate) were incubated with inventive CDNs in different concentrations (0 μg/ml; 10 μg/ml; 20 μg/ml; 40 μg/ml) in medium (RPMI-1640, 2 mM L-glutamine, 1.5 g/I sodium bicarbonate, 4.5 g/I glucose, 10 mM HEPES, 1 mM sodium pyruvate, 10% FCS, 100 μg/ml Zeocin™, 110 μg/ml Normocin™, Pen-Strep 50 U/ml) for 24 hours at 37° C. in 5% CO2. The quantification was performed with SEAP detection reagent QUANTI-Blue™ (InvivoGen; catalogue number: rep-qb1; incubation time: 30 min at 37° C. in 5% CO2) by optical density (OD) determination at 625 nm.
(§1) Legend for Synthesis 5: THP1-Blue™ cells ((THP1-ISG); InvivoGen, catalogue number: thp-isg; concentration: 5×10^5/ml, 180 μl/well (96-well-plate) and THP1 Dual™ KO STING cells ((STING KO) InvivoGen, catalogue number: thpd-kostg; concentration: 5×10^5/ml, 180 μl/well (96-well-plate) were incubated with inventive CDNs (concentration 40 μg/ml each) in medium (RPMI-1640, 2 mM L-glutamine, 1.5 g/I sodium bicarbonate, 4.5 g/I glucose, 10 mM HEPES, 1 mM sodium pyruvate, 10% FCS, 100 μg/mL Zeocin™, 110 μg/mL Normocin™, Pen-Strep 50 U/mL) for 24 hours at 37° C. in 5% CO2. For incubations with THP1 Dual™ KO STING cells, 10 μg/ml of blasticidin were added to the medium. Quantification was performed with SEAP detection reagent QUANTI-Blue™ (InvivoGen; catalogue number: rep-qb1; incubation time: 15 min at 37° C. in 5% CO2) by optical density (OD) determination at 625 nm.
Cell line: THP1-Blue™ cells (InvivoGen, catalogue number: thp-isg) are derived from THP1 cells. THP1-Blue™ cells in a cell culture dish are stimulated by the administration of a CDN according to the invention or a buffer control.
In these genetically modified cells, the gene for secreted embryonic alkaline phosphatase (SEAP) is under the control of an interferon-β promoter.
After stimulation of the cells with an inventive CDN, the supernatant of the cell culture was removed and the enzymatic activity of SEAP was measured photometrically in a colorimetric assay by measuring the extinction at 625 nm (optical density; OD 625 nm).
Administration of an inventive CDN induces an increase in the activity of SEAP, which is a measure of the activity of the STING signalling pathway.

THP1 Dual KO STING cells = assay: SEAP reporter assay in THP1 Dual KO STING control cells; type: cell-based, human; conditions: 40 μg/ml, 24 hours (FIG. 2)
Method: as §1

Row | Compound | log k′g ([1]; listed as 29, MI2) | SEAP activity, elevated OD at 625 nm, concentration-dependent (STING signalling pathway) | effect of elevated OD at 625 nm in STING knock out cells (THP1 Dual KO STING cells) | log k′g ([1]; listed as 98, MI1) | log k′g [1]
1 | Nc1nc2c(ncn2[C@@H]2O[C@@H]3COP(=O)(S)OC4C(O)[C@H](n5cnc6cc(Cl)c(Cl)cc65)O[C@@H]4COP(=O)(S)OC2C3O)c(=O)[nH]1 (single isomer, unassigned) [Compound 29, MI2, Cyclic (guanosine-(2′→5′)-monophosphorothioate-5,6-dichlorobenzimidazole riboside-(3′→5′)-monophosphorothioate)] | 2.403 | positive | no longer observed |  | 
2 | Nc1ncnc2c1ncn2[C@@H]1O[C@@H]2COP(=O)(S)OC3C(O)[C@@H](COP(=O)(S)OC2C1O)O[C@H]3n1cnc2ccccc21 (single isomer, unassigned) [Compound 98, MI1, Cyclic (adenosine-(3′→5′)-monophosphorothioate-benzimidazole riboside-(2′→5′)-monophosphorothioate)] |  | positive | no longer observed | 1.524 | 
3 | Nc1ncnc2c1ncn2[C@@H]1O[C@@H]2COP(=O)(O)OC3C(O)[C@H](n4cnc5ccccc54)O[C@@H]3COP(=O)(O)OC2C1F (stereo partly drawn) [Compound 79, cyclic (2′-fluoro-2′-deoxyadenosine-(3′ −> 5′)-monophosphate-benzimidazole riboside-(3′ −> 5′)-monophosphate)] |  | positive | no longer observed |  | 1.322

Reference: patent US11001605B2, “Cyclic dinucleotides containing benzimidazole, method for the production of same, and use of same to activate stimulator of interferon genes (sting)-dependent signaling pathways” (BIOLOG LIFE SCIENCE INSTITUTE GmbH & Co. KG, priority 2016, dated 2021)
